Where two headings read alike, the source gives them in different places.
What was measured:
[1] = Toxicity, mice in groups (death rate); settings: mouse, in vivo, 4 hours after treatment, read-out: percentage death rate
Description: (§1) Batches of 10 mice are placed in boxes covered with grids (20 × 10 × 10 cm), either isolated individually, or in groups of 10. The test compound is administered orally to them. The death rate is noted 4 hours after the treatment.
(§2) Tables IV and V below give the percentage death rate for the products of Examples XXIV and XXVII compared with d-amphetamine sulphate.

[2] = Toxicity, isolated mice (death rate); settings: mouse, in vivo, 4 hours after treatment, read-out: percentage death rate
Description: as §1, §2

[3] = Potentiation of amphetamine: stereotypies in rats after d-amphetamine sulphate; assay type: in vivo; settings: 30 min before 5 mg/kg d-amphetamine sulphate i.p., over 3 hours, maximum 24
Description: 1. POTENTIATION OF AMPHETAMINE
The test compound is administered intraperitoneally to rats 30 minutes before the intraperitoneal injection of 5 mg/kg of d-amphetamine sulphate. The intensity of the stereotypies over a period of 3 hours is assessed by attributing a number from 0 to 4. Table I indicates the sum of the assessments as a function of the doses administered. The maximum assessment is 24.

[4] = Cardiovascular activity in anaesthetised dogs; assay type: in vivo; settings: for pulmonary and systemic hypertension: amphetamine injected intravenously
Excerpt: 5. CARDIOVASCULAR ACTIVITY

[5] = Clinical activity (food intake in man); assay type: in vivo; settings: daily dose of 50 mg
Description: The compounds are preferably presented in a form suitable for oral administration, for example in the form of gelatin-coated pills containing 25 mg of the active ingredient.

[6] = Anorexigenic activity in rats; assay type: in vivo, Sprague Dawley male rats; settings: for ED50: Rattus norvegicus, oral, Litchfield and Wilcoxon method, read-out: ED50 (50% inhibiting dose in relation to the consumption of food)
Description: 3. ANOREXIGENIC ACTIVITY IN RATS
Two batches of three Sprague Dawley male rats (130 - 180 g) are conditioned to take their daily food over the course of 7 hours. Water is given as desired. The test compound is administered orally 30 minutes before the food is presented. The amount ingested is measured 1 hour and 2 hours later. The 50% inhibiting dose in relation to the consumption of food (ED50) and the confidence range are calculated according to the Litchfield and Wilcoxon method.
Table III gives the percentage inhibition in relation to the consumption of food as a function of the doses administered.

[7] = Anorexigenic activity in dogs; assay type: in vivo, Beagle dogs; settings: Canis lupus familiaris, po, read-out: percentage inhibition of consuming food
Description: 2. ANOREXIGENIC ACTIVITY IN DOGS
Beagle dogs are conditioned to take their food over the course of 5 minutes once per day. The test compound is administered orally in the form of a single dose of 10 mg/kg one hour before the food is presented. The amount of food ingested is measured at regular intervals.
Table II gives the percentage inhibition of consuming food as a function of the time after treatment.

SMILES | mortality at 4 h ([1]; 16 mg/kg oral) [%] | mortality at 4 h ([1]; 32 mg/kg oral) [%] | mortality at 4 h ([1]; 64 mg/kg oral) [%] | mortality at 4 h ([1]; 128 mg/kg oral) [%] | mortality at 4 h ([2]; 16 mg/kg oral) [%] | mortality at 4 h ([2]; 32 mg/kg oral) [%] | mortality at 4 h ([2]; 64 mg/kg oral) [%] | sum of the assessments of intensity of stereotypies ([3]; 1 mg/kg intraperitoneal) | sum of the assessments of intensity of stereotypies ([3]; 4 mg/kg intraperitoneal) | sum of the assessments of intensity of stereotypies ([3]; 16 mg/kg intraperitoneal) | systemic hypotension [4] | pulmonary and systemic hypertension [4] | amount of food ingested daily [5] | percentage inhibition in relation to the consumption of food ([6]; 1 mg/kg oral, 1 hr) [%] | percentage inhibition in relation to the consumption of food ([6]; 1 mg/kg oral, 2 hrs) [%] | percentage inhibition in relation to the consumption of food ([6]; 2 mg/kg oral, 1 hr) [%] | percentage inhibition in relation to the consumption of food ([6]; 2 mg/kg oral, 2 hrs) [%] | percentage inhibition in relation to the consumption of food ([6]; 4 mg/kg oral, 1 hr) [%] | percentage inhibition in relation to the consumption of food ([6]; 4 mg/kg oral, 2 hrs) [%] | percentage inhibition in relation to the consumption of food ([6]; 8 mg/kg oral, 1 hr) [%] | further results
CC1NC(C2CC2)CC1c1ccc(Cl)c(Cl)c1.Cl (stereo not drawn) [XXVII, 2-cyclopropyl-4-(3',4'-dichlorophenyl)-5-methylpyrrolidine hydrochloride] | 0 | 0 | 0 | 70 | 0 | 20 | 70 | 21 | 23 | 24 | cause systemic hypotension | do not cause these phenomena | a decrease in the amount of food ingested daily | 39 | 36 | 28 | 37 | 58 | 55 | 84 | percentage inhibition in relation to the consumption of food ([6]; 0.5 mg/kg oral, 1 hr): 25%; percentage inhibition in relation to the consumption of food ([6]; 0.5 mg/kg oral, 2 hrs): 30%; percentage inhibition in relation to the consumption of food ([6]; 8 mg/kg oral, 2 hrs): 83%; percentage inhibition in relation to the consumption of food ([6]; 16 mg/kg oral, 1 hr): 100%; percentage inhibition in relation to the consumption of food ([6]; 16 mg/kg oral, 2 hrs): 100%; ED50 ([6]; 1 hr): 2.3 mg/kg; ED50 ([6]; 2 hrs): 2.2 mg/kg; inhibition in vivo at 10 mg/kg ([7]; 1 h): 100%; inhibition in vivo at 10 mg/kg ([7]; 2 h): 100%; inhibition in vivo at 10 mg/kg ([7]; 4 h): 100%; inhibition in vivo at 10 mg/kg ([7]; 24 h): 100%; inhibition in vivo at 10 mg/kg ([7]; 48 h): 100%
CC1NC(C2CC2)CC1c1ccc(Cl)cc1.Cl (stereo not drawn) [XXIV, 2-cyclopropyl-4-(p-chlorophenyl)-5-methylpyrrolidine hydrochloride] | 0 | 0 | 0 | 0 | 0 | 0 | 0 | 7 | 22 | 24 | cause systemic hypotension | do not cause these phenomena | a decrease in the amount of food ingested daily | 6 | 5 | 44 | 53 | 47 | 34 | 77 | mortality at 4 h ([2]; 128 mg/kg oral): 27%; percentage inhibition in relation to the consumption of food ([6]; 8 mg/kg oral, 2 hrs): 71%; percentage inhibition in relation to the consumption of food ([6]; 16 mg/kg oral, 1 hr): 77%; percentage inhibition in relation to the consumption of food ([6]; 16 mg/kg oral, 2 hrs): 80%; ED50 ([6]; 1 hr): 3.5 mg/kg; ED50 ([6]; 2 hrs): 5.6 mg/kg; inhibition in vivo at 10 mg/kg ([7]; 1 h): 100%; inhibition in vivo at 10 mg/kg ([7]; 2 h): 100%; inhibition in vivo at 10 mg/kg ([7]; 4 h): 100%; inhibition in vivo at 10 mg/kg ([7]; 24 h): 80%; inhibition in vivo at 10 mg/kg ([7]; 48 h): 50%

Source: patent US4005103A, “Pyrrolidine derivatives” (priority 1973, dated 1977)
